molecular target: T1, hQ23 (HEK-293 cell line stably transfected with one of the members of the KCNQ family) (Homo sapiens, UniProt O43525+O43526); assay: Thallium flux assay for KCNQ channel blockers (FLIPR, BTC dye); format: cell-based; settings: hQ23 cells, thallium flux
T1 construct: expressed in transfected cells; host or cells: HEK-293, stably transfected
Procedure: Thallium Flux Assay for KCNQ channel blockers. Approximately 20,000 cells/well of an HEK-293 cell line stably transfected with one of the members of the KCNQ family were plated into clear-bottom, black-walled, poly-D-lysine coated, 384 well assay plates in 20 μl/well of low chloride plating medium. Low chloride plating medium was composed of the following: sodium gluconate, 109 mM; potassium gluconate, 5.4 mM; hemi-calcium gluconate, 3.6 mM; magnesium sulfate, 0.8 mM; sodium bicarbonate, 26.2 mM; sodium phosphate monobasic, 1.2 mM; glutamine, 2 mM; glucose, 5 mM; HEPES (pH 7.3) 10 mM, 10× concentration of vitamins (Gibco/LifeTechnologies catalog #11120-052) and 1× concentration of amino acids (Gibco/LifeTechnologies catalog #11130-051).
Following overnight incubation in a 5% CO2 incubator at 37° C., the cells in the plates were loaded with 20 μl/well of a dye loading solution containing the acetomethoxy ester of the thallium-sensitive fluorescent dye BTC, BTC-AM (2 μM) and pluronic acid (0.02% w/v) in chloride free assay buffer. Chloride free assay buffer was composed of the following: sodium gluconate, 140 mM; potassium gluconate, 2.5 mM; hemi-calcium gluconate, 6 mM; hemi-magnesium gluconate, 2 mM; glucose, 5 mM; HEPES (pH 7.3), 10 mM.
Following incubation in the dye loading solution for from 45–90 min at room temperature, the dye loading solution was removed by aspiration and replaced with 40 μl/well of chloride free assay buffer.
Prior to addition to cell plates, test compound and standard compounds were dissolved in DMSO to 3 mM concentration. Compounds were then diluted from the 3 mM stock to 100-fold over the final assay concentration in DMSO. Finally, compounds in DMSO were diluted from 100-fold over the final assay concentration to 5-fold over the final assay concentration in chloride free assay buffer.
Ten μl/well of compounds at 5-fold over the final assay concentration were then added to the cell plates. This represents a 1:5 dilution, yielding the final test concentration. The wells used for test compounds were A1–P20. Wells A21–P22 contained a standard ‘blocker’ and a fully efficacious concentration (positive control). Wells A23–P24 contained chloride free assay buffer containing 1% DMSO (negative control).
Following addition of test compounds, the plates were loaded onto the Molecular Devices FLIPR. The 488 nm line of the argon laser was used to excite the BTC and the emission filter was a 540(+/−30) nm. Images were collected at 1 Hz. Ten seconds of baseline were collected and then the FLIPR was used to add 13 μl/well of a stimulus buffer composed of Tl2SO4, 25 mM; sodium gluconate, 30 mM; potassium sulfate, 50 mM; hemi-calcium gluconate, 6 mM; hemi-magnesium gluconate, 2 mM; glucose, 5 mM; HEPES (pH 7.3), 10 mM in chloride free assay buffer. Images were collected for an additional 60 seconds.
For data analysis, the amplitude of the average of the negative controls was subtracted from all wells. The amplitudes of the test compounds were then compared to the value of four standard deviations of the negative control wells. The lowest concentration of a test compound sufficient to generate a signal amplitude greater than or equal to four standard deviations from the amplitude of the negative controls was defined as the minimal active concentration.
For generating IC50 values, compounds were serially diluted in 1:3 volume increments to produce a 10 point concentration series. IC50 values were calculated by fitting the resulting amplitudes to a single-site logistic equation. IC50 was defined as the concentration of test compound required to yield 50% of the response of the positive control.

T1 sequence (O43526 whole entry): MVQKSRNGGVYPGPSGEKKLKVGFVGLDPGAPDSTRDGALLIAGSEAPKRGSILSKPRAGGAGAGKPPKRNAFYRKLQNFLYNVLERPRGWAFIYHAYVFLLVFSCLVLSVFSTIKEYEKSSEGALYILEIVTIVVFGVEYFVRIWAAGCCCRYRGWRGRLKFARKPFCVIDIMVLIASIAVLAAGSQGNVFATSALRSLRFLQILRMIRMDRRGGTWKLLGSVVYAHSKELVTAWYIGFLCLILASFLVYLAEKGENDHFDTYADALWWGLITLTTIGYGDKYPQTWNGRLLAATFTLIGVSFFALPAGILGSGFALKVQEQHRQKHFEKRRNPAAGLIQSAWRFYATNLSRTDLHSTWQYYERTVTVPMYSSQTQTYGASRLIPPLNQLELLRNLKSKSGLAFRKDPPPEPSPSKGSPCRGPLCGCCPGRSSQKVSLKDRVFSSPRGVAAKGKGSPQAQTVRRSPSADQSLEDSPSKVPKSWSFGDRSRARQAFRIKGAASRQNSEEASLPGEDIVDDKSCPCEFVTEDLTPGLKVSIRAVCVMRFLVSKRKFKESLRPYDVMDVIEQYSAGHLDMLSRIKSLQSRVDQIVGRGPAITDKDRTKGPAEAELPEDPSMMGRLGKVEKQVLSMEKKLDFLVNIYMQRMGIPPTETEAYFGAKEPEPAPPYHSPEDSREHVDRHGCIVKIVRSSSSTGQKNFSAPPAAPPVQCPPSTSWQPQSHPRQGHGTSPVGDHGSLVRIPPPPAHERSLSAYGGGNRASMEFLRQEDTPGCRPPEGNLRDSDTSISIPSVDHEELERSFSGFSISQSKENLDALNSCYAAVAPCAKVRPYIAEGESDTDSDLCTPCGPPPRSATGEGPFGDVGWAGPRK
T1 sequence (O43525 whole entry): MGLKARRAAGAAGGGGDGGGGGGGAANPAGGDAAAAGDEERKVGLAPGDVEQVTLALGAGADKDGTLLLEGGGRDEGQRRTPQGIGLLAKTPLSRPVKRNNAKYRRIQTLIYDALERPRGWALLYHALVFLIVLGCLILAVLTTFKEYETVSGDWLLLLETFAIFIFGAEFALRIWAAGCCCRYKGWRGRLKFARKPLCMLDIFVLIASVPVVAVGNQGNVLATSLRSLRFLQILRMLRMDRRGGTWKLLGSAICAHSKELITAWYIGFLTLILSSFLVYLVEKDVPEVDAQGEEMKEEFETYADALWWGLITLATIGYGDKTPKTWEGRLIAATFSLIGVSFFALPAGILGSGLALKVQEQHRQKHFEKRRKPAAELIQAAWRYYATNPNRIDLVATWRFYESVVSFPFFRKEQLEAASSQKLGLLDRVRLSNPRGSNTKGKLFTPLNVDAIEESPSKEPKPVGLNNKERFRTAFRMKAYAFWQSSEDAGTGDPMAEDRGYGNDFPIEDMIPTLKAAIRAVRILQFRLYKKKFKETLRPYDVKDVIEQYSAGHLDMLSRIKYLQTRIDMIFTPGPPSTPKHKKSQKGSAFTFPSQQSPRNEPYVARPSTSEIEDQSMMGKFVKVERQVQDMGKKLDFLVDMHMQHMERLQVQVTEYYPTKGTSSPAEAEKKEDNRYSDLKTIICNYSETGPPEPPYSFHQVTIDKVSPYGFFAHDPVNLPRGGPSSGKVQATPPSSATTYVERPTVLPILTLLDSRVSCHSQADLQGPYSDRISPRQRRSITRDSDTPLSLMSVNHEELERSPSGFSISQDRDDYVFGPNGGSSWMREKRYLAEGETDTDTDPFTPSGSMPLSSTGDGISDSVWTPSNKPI

Structure (SMILES)	EC50
CC1CCN(c2ncc(C(=O)N3CCc4ccccc4C3)c(C3(c4ccccc4)CCCC3)n2)CC1 [Example 74, isoquinoline, 1,2,3,4-tetrahydro-2-[[2-(4-methyl-1-piperidinyl)-4-(1-phenylcyclopentyl)-5-pyrimidinyl]carbonyl]-]	191 nM
CCN(C(=O)c1cnc(N2CCC(C)CC2)nc1C1(c2ccccc2)CCCC1)C1CCCCC1 [Example 76, 5-pyrimidinecarboxamide, N-cyclohexyl-N-ethyl-2-(4-methyl-1-piperidinyl)-4-(1-phenylcyclopentyl)-]	900 nM
CC1CCN(c2ncc(C(=O)N3CCCCC3)c(C3(c4ccccc4)CCCC3)n2)CC1 [Example 77, piperidine, 1-[[2-(4-methyl-1-piperidinyl)-4-(1-phenylcyclopentyl)-5-pyrimidinyl]carbonyl]-]	164 nM
CC1CCN(c2ncc(C(=O)N3CCCC(C)C3)c(C3(c4ccccc4)CCCC3)n2)CC1 (stereo not drawn) [Example 78, piperidine, 3-methyl-1-[[2-(4-methyl-1-piperidinyl)-4-(1-phenylcyclopentyl)-5-pyrimidinyl]carbonyl]-]	775 nM
CC1CCCN(c2ncc(C(=O)N(C(C)C)C(C)C)c(C3(c4ccccc4)CCCC3)n2)C1 (stereo not drawn) [Example 82, 5-pyrimidinecarboxamide,N,N-bis(1-methylethyl)-2-(3-methyl-1-piperidinyl)-4-(1-phenylcyclopentyl)-]	285 nM
CCN(C)C(=O)c1cnc(N2CCCC(C)C2)nc1C1(c2ccccc2)CCCC1 (stereo not drawn) [Example 83, 5-pyrimidinecarboxamide, N-ethyl-N-methyl-2-(3-methyl-1-piperidinyl)-4-(1-phenylcyclopentyl)-]	605 nM
CN1CCN(c2ncc(C(=O)NCc3ccc4c(c3)OCO4)c(C3(c4ccccc4)CCCC3)n2)CC1 [Example 91, 5-pyrimidinecarboxamide, N-(1,3-benzodioxol-5-ylmethyl)-2-(4-methyl-1-piperazinyl)-4-(1-phenylcyclopentyl)-]	257 nM
CC1CCCN(c2ncc(C(=O)NCc3ccc4c(c3)OCO4)c(C3(c4ccccc4)CCCC3)n2)C1 (stereo not drawn) [Example 92, 5-pyrimidinecarboxamide, N-(1,3-benzodioxol-5-ylmethyl)-2-(3-methyl-1-piperidinyl)-4-(1-phenylcyclopentyl)-]	57 nM
CC1CCN(c2ncc(C(=O)NCc3ccc4c(c3)OCO4)c(C3(c4ccccc4)CCCC3)n2)CC1 [Example 93, 5-pyrimidinecarboxamide, N-(1,3-benzodioxol-5-ylmethyl)-2-(4-methyl-1-piperidinyl)-4-(1-phenylcyclopentyl)-]	37 nM
CCC(C)Nc1ncc(C(=O)NCc2ccc3c(c2)OCO3)c(C2(c3ccccc3)CCCC2)n1 (stereo not drawn) [Example 94, 5-pyrimidinecarboxamide, N-(1,3-benzodioxol-5-ylmethyl)-2-[(1-methylpropyl)amino]-4-(1-phenylcyclopentyl)-]	301 nM
CC1CCCN(c2ncc(C(=O)NC(C)c3cccc4ccccc34)c(C3(c4ccccc4)CCCC3)n2)C1 (stereo not drawn) [Example 97, 5-pyrimidinecarboxamide, 2-(3-methyl-1-piperidinyl)-N-[1-(1-naphthalenyl)ethyl]-4-(1-phenylcyclopentyl)-]	19 nM
CC1CCN(c2ncc(C(=O)NC(C)c3cccc4ccccc34)c(C3(c4ccccc4)CCCC3)n2)CC1 (stereo not drawn) [Example 98, 5-pyrimidinecarboxamide, 2-(4-methyl-1-piperidinyl)-N-[1-(1-naphthalenyl)ethyl]-4-(1-phenylcyclopentyl)-]	15 nM
CCC(C)Nc1ncc(C(=O)NC(C)c2cccc3ccccc23)c(C2(c3ccccc3)CCCC2)n1 (stereo not drawn) [Example 99, 5-pyrimidinecarboxamide, 2-[(1-methylpropyl)amino]-N-[1-(1-naphthalenyl)ethyl]-4-(1-phenylcyclopentyl)-]	293 nM

Results, then the molecule that gave them:

EC50	Structure (SMILES)
798 nM	CC1CCC(Nc2ncc(C(=O)N3CCc4ccccc4C3)c(C3(c4ccccc4)CCCC3)n2)CC1 (stereo not drawn) [Example 73, isoquinoline, 1,2,3,4-tetrahydro-2-[[2-[(4-methylcyclohexyl)amino]-4-(1-phenylcyclopentyl)-5-pyrimidinyl]carbonyl]-]
950 nM	O=C(c1cnc(NC2CCCC2)nc1C1(c2ccccc2)CCCC1)N1CCc2ccccc2C1 [Example 75, isoquinoline, 2-[[2-(cyclopentylamino)-4-(1-phenylcyclopentyl)-5-pyrimidinyl]carbonyl]-1,2,3,4-tetrahydro-]
444 nM	CN(CCc1ccccc1)C(=O)c1cnc(N2CCCC2)nc1C1(c2ccccc2)CCCC1 [Example 79, 5-pyrimidinecarboxamide, N-methyl-4-(1-phenylcyclopentyl)-N-(2-phenylethyl)-2-(1-pyrrolidinyl)-]
880 nM	CC1CCCN(c2ncc(C(=O)N(C)CCc3ccccc3)c(C3(c4ccccc4)CCCC3)n2)C1 (stereo not drawn) [Example 80, 5-pyrimidinecarboxamide, N-methyl-2-(3-methyl-1-piperidinyl)-4-(1-phenylcyclopentyl)-N-(2-phenylethyl)-]
437 nM	CC1CCN(c2ncc(C(=O)N(C)CCc3ccccc3)c(C3(c4ccccc4)CCCC3)n2)CC1 [Example 81, 5-pyrimidinecarboxamide, N-methyl-2-(4-methyl-1-piperidinyl)-4-(1-phenylcyclopentyl)-N-(2-phenylethyl)-]
829 nM	CCN(Cc1ccccc1)C(=O)c1cnc(NC2CCC(C)CC2)nc1C1(c2ccccc2)CCCC1 (stereo not drawn) [Example 84, 5-pyrimidinecarboxamide, N-ethyl-2-[(4-methylcyclohexyl)amino]-4-(1-phenylcyclopentyl)-N-(phenylmethyl)-]
161 nM	CCN(Cc1ccccc1)C(=O)c1cnc(N2CCCC(C)C2)nc1C1(c2ccccc2)CCCC1 (stereo not drawn) [Example 85, 5-pyrimidinecarboxamide, N-ethyl-2-(3-methyl-1-piperidinyl)-4-(1-phenylcyclopentyl)-N-(phenylmethyl)-]
334 nM	CCN(Cc1ccccc1)C(=O)c1cnc(N2CCC(C)CC2)nc1C1(c2ccccc2)CCCC1 [Example 86, 5-pyrimidinecarboxamide, N-ethyl-2-(4-methyl-1-piperidinyl)-4-(1-phenylcyclopentyl)-N-(phenylmethyl)-]
851 nM	CCC(C)Nc1ncc(C(=O)N(CC)Cc2ccccc2)c(C2(c3ccccc3)CCCC2)n1 (stereo not drawn) [Example 87, 5-pyrimidinecarboxamide, N-ethyl-2-[(1-methylpropyl)amino]-4-(1-phenylcyclopentyl)-N-(phenylmethyl)-]
926 nM	CCN(Cc1ccccc1)C(=O)c1cnc(NC2CCCC2)nc1C1(c2ccccc2)CCCC1 [Example 88, 5-pyrimidinecarboxamide, 2-(cyclopentylamino)-N-ethyl-4-(1-phenylcyclopentyl)-N-(phenylmethyl)-]
692 nM	O=C(NCc1ccc2c(c1)OCO2)c1cnc(NC2CC2)nc1C1(c2ccccc2)CCCC1 [Example 89, 5-pyrimidinecarboxamide, N-(1,3-benzodioxol-5-ylmethyl)-2-(cyclopropylamino)-4-(1-phenylcyclopentyl)-]
220 nM	CC1CCC(Nc2ncc(C(=O)NCc3ccc4c(c3)OCO4)c(C3(c4ccccc4)CCCC3)n2)CC1 (stereo not drawn) [Example 90, 5-pyrimidinecarboxamide, N-(1,3-benzodioxol-5-ylmethyl)-2-[(4-methylcyclohexyl)amino]-4-(1-phenylcyclopentyl)-]
64 nM	CC1CCC(Nc2ncc(C(=O)NC(C)c3cccc4ccccc34)c(C3(c4ccccc4)CCCC3)n2)CC1 (stereo not drawn) [Example 95, 5-pyrimidinecarboxamide, 2-[(4-methylcyclohexyl)amino]-N-[1-(1-naphthalenyl)ethyl]-4-(1-phenylcyclopentyl)-]
148 nM	CC(NC(=O)c1cnc(N2CCCC2)nc1C1(c2ccccc2)CCCC1)c1cccc2ccccc12 (stereo not drawn) [Example 96, 5-pyrimidinecarboxamide, N-[1-(1-naphthalenyl)ethyl]-4-(1-phenylcyclopentyl)-2-(1-pyrrolidinyl)-]

— US7091202B2, “4-arylspirocycloalkyl-2-aminopyrimidine carboxamide KCNQ potassium channel modulators” (Bristol-Myers Squibb Company, priority 2004, dated 2006)
